Experimental data: PubChem BioAssay (NCI)
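These data come from cells grown in 96-well plates and exposed to compound for 48 hours at five concentrations. The concentration for 50% growth inhibition is given as GI50. The concentration for full growth arrest is given as TGI.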

Columns and labels:
Experiment in all cases: NCI anticancer screen, dose series, 48 h
[1] = tested on: COLO 205 colon
[2] = tested on: NCI/ADR-RES ovarian
[3] = tested on: A549 NSCLC
[4] = tested on: BT-549 breast
[5] = tested on: SK-MEL-5 melanoma
[6] = tested on: HL-60(TB) leukemia
[7] = tested on: U251 CNS
[8] = tested on: KM12 colon
[9] = tested on: HCC-2998 colon
[10] = tested on: SNB-19 CNS
[11] = tested on: 786-0 renal
[12] = tested on: OVCAR-5 ovarian
[13] = tested on: UACC-257 melanoma
[14] = tested on: A498 renal
[15] = tested on: RXF 393 renal
[16] = tested on: SF-268 CNS
[17] = tested on: SNB-75 CNS
[18] = tested on: NCI-H23 lung
[19] = tested on: SF-539 CNS
[20] = tested on: ACHN renal
[21] = tested on: UO-31 renal
[22] = tested on: SW-620 colon
[23] = tested on: SR leukemia
[24] = tested on: OVCAR-8 ovarian
[25] = tested on: SK-MEL-2 melanoma
[26] = tested on: T-47D breast
[27] = tested on: LOX IMVI melanoma
[28] = tested on: HCT-15 colon
[29] = tested on: SK-OV-3 ovarian
[30] = tested on: OVCAR-4 ovarian
[31] = tested on: MDA-MB-435
[32] = tested on: NCI-H226 lung
[33] = tested on: CAKI-1 renal
[34] = tested on: TK-10 renal
[35] = tested on: CCRF-CEM leukemia
[36] = tested on: RPMI-8226 leukemia
[37] = tested on: K-562 leukemia
[38] = tested on: HOP-92 NSCLC
[39] = tested on: MDA-MB-231 breast
[40] = tested on: PC-3 prostate
[41] = tested on: OVCAR-3 ovarian
[42] = tested on: HCT-116 colon
[43] = tested on: SF-295 CNS
[44] = tested on: SK-MEL-28 melanoma
[45] = tested on: HOP-62 NSCLC
[46] = tested on: MCF7 breast
[47] = tested on: HT29 colon
[48] = tested on: UACC-62 melanoma
[49] = tested on: NCI-H460 lung
[50] = tested on: HS 578T breast
[51] = tested on: MALME-3M melanoma
[52] = tested on: NCI-H522 lung
[53] = tested on: EKVX NSCLC
[54] = tested on: IGROV1 ovarian
[55] = tested on: SN12C renal
[56] = tested on: DU-145 prostate
[57] = tested on: MOLT-4 leukemia

For `O=C(Nc1ncc(Cc2ccccc2)s1)c1ccc2c(c1)OCCO2`, the GI50 [1] was 35.4 nM, the TGI [1] was 1080 nM and the GI50 [2] was 39.5 nM. It also gave a TGI [2] greater than 100000 nM, a GI50 [3] of 61.6 nM and a TGI [3] greater than 100000 nM. The GI50 [4] was 267 nM, the TGI [4] was greater than 100000 nM and the GI50 [5] was 42.8 nM. For the same compound, the TGI [5] was 454 nM, the GI50 [6] was 41.6 nM and the TGI [6] was greater than 100000 nM. For the same compound, the GI50 [7] was 41.8 nM, the TGI [7] was greater than 100000 nM and the GI50 [8] was 39.6 nM. The TGI [8] was 32900 nM, the GI50 [9] was 72.9 nM and the TGI [9] was 1630 nM. For the same compound, the GI50 [10] was 54.9 nM, the TGI [10] was greater than 38000 nM and the GI50 [11] was 56.2 nM. It also gave a TGI [11] greater than 100000 nM, a GI50 [12] of 96 nM and a TGI [12] greater than 100000 nM. For the same compound, the GI50 [13] was 3870 nM, the TGI [13] was greater than 100000 nM and the GI50 [14] was 12.3 nM. The TGI [14] was 68.7 nM, the GI50 [15] was 23.1 nM and the TGI [15] was 71.5 nM. It also gave a GI50 [16] of 459 nM, a TGI [16] greater than 100000 nM and a GI50 [17] of 27.7 nM. The TGI [17] was 1660 nM, the GI50 [18] was 67.9 nM and the TGI [18] was greater than 100000 nM. For the same compound, the GI50 [19] was 28.3 nM, the TGI [19] was 177 nM and the GI50 [20] was 67.6 nM. The TGI [20] was greater than 100000 nM, the GI50 [21] was 75.6 nM and the TGI [21] was greater than 100000 nM. The GI50 [22] was 43.5 nM, the TGI [22] was greater than 100000 nM and the GI50 [23] was 48.7 nM. It also gave a TGI [23] greater than 100000 nM, a GI50 [24] of 59.1 nM and a TGI [24] greater than 100000 nM. The GI50 [25] was 101 nM, the TGI [25] was greater than 100000 nM and the GI50 [26] was 52.3 nM. It also gave a TGI [26] greater than 100000 nM, a GI50 [27] of 54.6 nM and a TGI [27] greater than 74300 nM. The GI50 [28] was 38.5 nM, the TGI [28] was greater than 100000 nM and the GI50 [29] was 68.1 nM. It also gave a TGI [29] of 26900 nM, a GI50 [30] of 561 nM and a TGI [30] greater than 100000 nM. It also gave a GI50 [31] of 18.7 nM, a TGI [31] of 43.6 nM and a GI50 [32] of 278 nM. For the same compound, the TGI [32] was 7010 nM, the GI50 [33] was 40.6 nM and the TGI [33] was greater than 39000 nM. The GI50 [34] was 154 nM, the GI50 [35] was 48.4 nM and the TGI [35] was greater than 100000 nM. The GI50 [36] was 58.7 nM, the TGI [36] was greater than 100000 nM and the GI50 [37] was 38.3 nM. It also gave a TGI [37] greater than 100000 nM, a GI50 [38] of 1350 nM and a TGI [38] greater than 100000 nM. For the same compound, the GI50 [39] was 66.9 nM, the TGI [39] was 4030 nM and the GI50 [40] was 42.4 nM. The TGI [40] was greater than 100000 nM, the GI50 [41] was 33.6 nM and the TGI [41] was 1010 nM. It also gave a GI50 [42] of 40.5 nM, a TGI [42] greater than 100000 nM and a GI50 [43] of 30.4 nM. The TGI [43] was 1490 nM, the GI50 [44] was 82.3 nM and the TGI [44] was greater than 100000 nM. The GI50 [45] was 78 nM, the TGI [45] was greater than 100000 nM and the GI50 [46] was 54.6 nM. For the same compound, the TGI [46] was greater than 100000 nM, the GI50 [47] was 50.6 nM and the TGI [47] was greater than 22000 nM. For the same compound, the GI50 [48] was 46.5 nM, the TGI [48] was 12300 nM and the GI50 [49] was 37.5 nM. For the same compound, the TGI [49] was greater than 34500 nM, the GI50 [50] was 35.3 nM and the TGI [50] was greater than 100000 nM. It also gave a GI50 [51] of 42 nM, a TGI [51] greater than 100000 nM and a GI50 [52] of 25.1 nM. The GI50 [53] was 133 nM, the TGI [53] was greater than 100000 nM and the GI50 [54] was 76.1 nM. The TGI [54] was greater than 100000 nM, the GI50 [55] was 74.8 nM and the TGI [55] was greater than 100000 nM. It also gave a GI50 [56] of 39.5 nM, a TGI [56] greater than 100000 nM and a GI50 [57] of 146 nM. For the same compound, the TGI [57] was greater than 100000 nM.
